Measurements taken from patent publication US7361659B2, “Pyrrazolo-pyrimidine derivatives” (Hoffmann-La Roche Inc., priority 2005, dated 2008).

In the case of `Cc1nc(NC(=O)c2cnn3c(C(F)(F)F)cc(-c4ccc(Cl)c(Cl)c4)nc23)sc1S(=O)(=O)NC(C)(C)CO` [Example 31, 5-(3,4-Dichloro-phenyl)-7-trifluoromethyl-pyrazolo[1,5-a]pyrimidine-3-carboxylic acid [5-(2-hydroxy-1,1-dimethyl-ethylsulfamoyl)-4-methyl-thiazol-2-yl]-amide], the melting point is reported as 265 °C. For `Cc1nc(NC(=O)c2cnn3c(C4CC4)cc(-c4ccc(Cl)cc4)nc23)sc1S(=O)(=O)NC(C)(C)CO` [Example 62, 5-(4-Chloro-phenyl)-7-cyclopropyl-pyrazolo[1,5-a]pyrimidine-3-carboxylic acid [5-(2-hydroxy-1,1-dimethyl-ethylsulfamoyl)-4-methyl-thiazol-2-yl]-amide], the melting point was 293 to 294 °C. With `Cc1nc(NC(=O)c2cnn3c(C(F)F)cc(-c4ccc(C(F)(F)F)cc4)nc23)sc1S(=O)(=O)NC(C)(CO)CO` [Example 43, 7-Difluoromethyl-5-(4-trifluoromethyl-phenyl)-pyrazolo[1,5-a]pyrimidine-3-carboxylic acid [5-(2-hydroxy-1-hydroxymethyl-1-methyl-ethylsulfamoyl)-4-methyl-thiazol-2-yl]-amide] the melting point was 248 °C. Compound `CCOc1cc(-c2cc(C(F)(F)F)n3ncc(C(=O)Nc4nc(C)c(S(N)(=O)=O)s4)c3n2)ccc1C(F)(F)F` [Example 20, 5-(3-Ethoxy-4-trifluoromethyl-phenyl)-7-trifluoromethyl-pyrazolo[1,5-a]pyrimidine-3-carboxylic acid (4-methyl-5-sulfamoyl-thiazol-2-yl)-amide] has a melting point of 300 °C. With `CC(C)(CO)NS(=O)(=O)c1cc(NC(=O)c2cnn3c(C(F)F)cc(-c4ccc(C(F)(F)F)cc4)nc23)c(Cl)s1` [Example 5, 7-Difluoromethyl-5-(4-trifluoromethyl-phenyl)-pyrazolo[1,5-a]pyrimidine-3-carboxylic acid [2-chloro-5-(2-hydroxy-1,1-dimethyl-ethylsulfamoyl)-thiophen-3-yl]-amide] the melting point was 233 °C. For `NS(=O)(=O)c1cc(NC(=O)c2cnn3c(C(F)F)cc(-c4ccc(C(F)(F)F)cc4)nc23)c(Cl)s1` [Example 1, 7-Difluoromethyl-5-(4-trifluoromethyl-phenyl)-pyrazolo[1,5-a]pyrimidine-3-carboxylic-acid (2-chloro-5-sulfamoyl-thiophen-3-yl)-amide], the melting point was 298 °C. In the case of `Cc1cc(-c2cc(C(F)F)n3ncc(C(=O)Nc4nc(C)c(S(=O)(=O)NC(C)(C)CO)s4)c3n2)ccc1C(F)(F)F` [Example 39, 7-Difluoromethyl-5-(3-methyl-4-trifluoromethyl-phenyl)-pyrazolo[1,5-a]pyrimidine-3-carboxylic acid [5-(2-hydroxy-1,1-dimethyl-ethylsulfamoyl)-4-methyl-thiazol-2-yl]-amide], the melting point is reported as 271 °C. Compound `Cc1nc(NC(=O)c2cnn3c(C(F)F)cc(-c4ccc(C(F)(F)F)cc4)nc23)sc1S(=O)(=O)NC(C)(C)CO` [Example 14, 7-Difluoromethyl-5-(4-trifluoromethyl-phenyl)-pyrazolo[1,5-a]pyrimidine-3-carboxylic acid [5-(2-hydroxy-1,1-dimethyl-ethylsulfamoyl)-4-methyl-thiazol-2-yl]-amide] has a melting point of 268 °C. For `NS(=O)(=O)c1cnc(NC(=O)c2cnn3c(C(F)F)cc(-c4ccc(C(F)(F)F)cc4)nc23)s1` [Example 52, 7-Difluoromethyl-5-(4-trifluoromethyl-phenyl)-pyrazolo[1,5-a]pyrimidine-3-carboxylic acid (5-sulfamoyl-thiazol-2-yl)-amide], the melting point was 311 °C. Work on `CN(C)CCNS(=O)(=O)c1cc(NC(=O)c2cnn3c(C(F)(F)F)cc(-c4ccc(C(F)(F)F)cc4)nc23)c(Cl)s1` [Example 55, 7-Trifluoromethyl-5-(4-trifluoromethyl-phenyl)-pyrazolo[1,5-a]pyrimidine-3-carboxylic acid [2-chloro-5-(2-dimethylamino-ethylsulfamoyl)-thiophen-3-yl]-amide] yielded a melting point of 198 °C. `O=C(Nc1cc(S(=O)(=O)N2CCC(O)C2)sc1Cl)c1cnn2c(C(F)F)cc(-c3ccc(C(F)(F)F)cc3)nc12` (racemic) [Example 66, 7-Difluoromethyl-5-(4-trifluoromethyl-phenyl)-pyrazolo[1,5-a]pyrimidine-3-carboxylic acid [(RS)-2-chloro-5-(3-hydroxy-pyrrolidine-1-sulfonyl)-thiophen-3-yl]-amide] showed a melting point of 274 °C. In the case of `Cc1nc(NC(=O)c2cnn3c(C(F)F)cc(-c4ccc(C(F)(F)F)cc4)nc23)sc1S(=O)(=O)N(CCO)CCO` [Example 40, 7-Difluoromethyl-5-(4-trifluoromethyl-phenyl)-pyrazolo[1,5-a]pyrimidine-3-carboxylic acid {5-[bis-(2-hydroxy-ethyl)-sulfamoyl]-4-methyl-thiazol-2-yl}-amide], the melting point is reported as 191 °C. `CN(CCO)S(=O)(=O)c1cc(NC(=O)c2cnn3c(C(F)(F)F)cc(-c4ccc(C(F)(F)F)cc4)nc23)c(Cl)s1` [Example 77, 7-Trifluoromethyl-5-(4-trifluoromethyl-phenyl)-pyrazolo[1,5-a]pyrimidine-3-carboxylic acid {2-chloro-5-[(2-hydroxy-ethyl)-methyl-sulfamoyl]-thiophen-3-yl}-amide] showed a melting point of 221 °C. Compound `CCOc1cc(-c2cc(C(F)(F)F)n3ncc(C(=O)Nc4nc(C)c(S(=O)(=O)NC(C)(CO)CO)s4)c3n2)ccc1C(F)(F)F` [Example 53, 5-(3-Ethoxy-4-trifluoromethyl-phenyl)-7-trifluoromethyl-pyrazolo[1,5-a]pyrimidine-3-carboxylic acid [5-(2-hydroxy-1-hydroxymethyl-1-methyl-ethylsulfamoyl)-4-methyl-thiazol-2-yl]-amide] has a melting point of 220 °C. In the case of `CC(C)(CO)NS(=O)(=O)c1cc(NC(=O)c2cnn3c(C4CC4)cc(-c4ccc(Cl)cc4)nc23)c(Cl)s1` [Example 61, 5-(4-Chloro-phenyl)-7-cyclopropyl-pyrazolo[1,5-a]pyrimidine-3-carboxylic acid [2-chloro-5-(2-hydroxy-1,1-dimethyl-ethylsulfamoyl)-thiophen-3-yl]-amide], the melting point is reported as 238 to 241 °C. Compound `Cc1nc(NC(=O)c2cnn3c(C(F)(F)F)cc(-c4ccc(C(F)(F)F)cc4)nc23)sc1S(=O)(=O)N1CCN(C)CC1` [Example 69, 7-Trifluoromethyl-5-(4-trifluoromethyl-phenyl)-pyrazolo[1,5-a]pyrimidine-3-carboxylic acid [4-methyl-5-(4-methyl-piperazine-1-sulfonyl)-thiazol-2-yl]-amide] has a melting point of 273 °C. `Cc1nc(NC(=O)c2cnn3c(C(F)F)cc(-c4ccc(C(F)(F)F)cc4)nc23)sc1S(=O)(=O)NCCN(C)C` [Example 57, 7-Difluoromethyl-5-(4-trifluoromethyl-phenyl)-pyrazolo[1,5-a]pyrimidine-3-carboxylic acid [5-(2-dimethylamino-ethylsulfamoyl)-4-methyl-thiazol-2-yl]-amide] showed a melting point of 217 °C. `Cc1nc(NC(=O)c2cnn3c(C(F)(F)F)cc(-c4ccc(C(F)(F)F)cc4)nc23)sc1S(=O)(=O)NCCO` [Example 46, 7-Trifluoromethyl-5-(4-trifluoromethyl-phenyl)-pyrazolo[1,5-a]pyrimidine-3-carboxylic acid [5-(2-hydroxy-ethylsulfamoyl)-4-methyl-thiazol-2-yl]-amide] showed a melting point of 166 °C. With `Cc1nc(NC(=O)c2cnn3c(C(F)(F)F)cc(-c4ccc(C(F)(F)F)cc4)nc23)sc1S(=O)(=O)NC(CO)CO` [Example 64, 7-Trifluoromethyl-5-(4-trifluoromethyl-phenyl)-pyrazolo[1,5-a]pyrimidine-3-carboxylic acid [5-(2-hydroxy-1-hydroxymethyl-ethylsulfamoyl)-4-methyl-thiazol-2-yl]-amide] the melting point was 215 °C. `O=C(Nc1cc(S(=O)(=O)N(CCO)CCO)sc1Cl)c1cnn2c(C(F)F)cc(-c3ccc(C(F)(F)F)cc3)nc12` [Example 34, 7-Difluoromethyl-5-(4-trifluoromethyl-phenyl)-pyrazolo[1,5-a]pyrimidine-3-carboxylic acid {5-[bis-(2-hydroxy-ethyl)-sulfamoyl]-2-chloro-thiophen-3-yl}-amide] gave a melting point of 216 °C. With `O=C(Nc1cc(S(=O)(=O)NC(CO)CO)sc1Cl)c1cnn2c(C(F)F)cc(-c3ccc(C(F)(F)F)cc3)nc12` [Example 28, 7-Difluoromethyl-5-(4-trifluoromethyl-phenyl)-pyrazolo[1,5-a]pyrimidine-3-carboxylic acid [2-chloro-5-(2-hydroxy-1-hydroxymethyl-ethylsulfamoyl)-thiophen-3-yl]-amide] the melting point was 241 °C. With `Cc1nc(NC(=O)c2cnn3c(C(F)(F)F)cc(-c4ccc(C(F)(F)F)c(Cl)c4)nc23)sc1S(N)(=O)=O` [Example 25, 5-(3-Chloro-4-trifluoromethyl-phenyl)-7-trifluoromethyl-pyrazolo[1,5-a]pyrimidine-3-carboxylic acid (4-methyl-5-sulfamoyl-thiazol-2-yl)-amide] the melting point was 299 °C. `CCOc1cc(-c2cc(C(F)(F)F)n3ncc(C(=O)Nc4nc(C)c(S(=O)(=O)NC(C)(C)CO)s4)c3n2)ccc1C(F)(F)F` [Example 23, 5-(3-Ethoxy-4-trifluoromethyl-phenyl)-7-trifluoromethyl-pyrazolo[1,5-a]pyrimidine-3-carboxylic acid [5-(2-hydroxy-1,1-dimethyl-ethylsulfamoyl)-4-methyl-thiazol-2-yl]-amide] showed a melting point of 276 °C. Compound `Cc1sc(S(=O)(=O)NC(C)(C)CO)cc1NC(=O)c1cnn2c(C(F)F)cc(-c3ccc(C(F)(F)F)cc3)nc12` [Example 50, 7-Difluoromethyl-5-(4-trifluoromethyl-phenyl)-pyrazolo[1,5-a]pyrimidine-3-carboxylic acid [5-(2-hydroxy-1,1-dimethyl-ethylsulfamoyl)-2-methyl-thiophen-3-yl]-amide] has a melting point of 180 °C. `NCCNS(=O)(=O)c1cc(NC(=O)c2cnn3c(C(F)F)cc(-c4ccc(C(F)(F)F)cc4)nc23)c(Cl)s1` [Example 65, 7-Difluoromethyl-5-(4-trifluoromethyl-phenyl)-pyrazolo[1,5-a]pyrimidine-3-carboxylic acid [5-(2-amino-ethylsulfamoyl)-2-chloro-thiophen-3-yl]-amide] showed a melting point of 150 °C.
